US20100168041A1, “COMBINATION OF MONOSACCHARIDES AND DESQUAMATING AGENTS, AND USE THEREOF” (L'OREAL, priority 2008, published 2010)

Experiments:
type I procollagen = assay: Synthesis of procollagen 1 in reconstructed skin (indirect immunofluorescence); assay type: cell-based, human; conditions: for procollagen 1 synthesis: reconstructed skin
Description: Conventional detection via indirect immunofluorescence of type I procollagen in the dermis of the reconstructed skin was also performed on other series of frozen sections (anti-procoll 1 antibody (MAB 1912 Millipore)+FTIC-coupled conjugate (112-095-068 Jackson Immunoresearch)). In order to obtain bearings within the cutaneous architecture during the microscopic examination of the sections, the cell nuclei of the keratinocytes and fibroblasts are localized by staining them with propidium iodide, as described above. Three frozen sections are prepared at random on each reconstructed skin and on each section, and two microscopic fields (25× objective lens) are analysed by fluorescence microscopy and photographed. The levels of fluorescence proportional to the amount of type I procollagen are compared between the control skin and the skin treated with rhamnose.

[1] = test system: dermal fibroblasts of the reconstructed skin; assay: Proliferation of fibroblasts in whole reconstructed skin (propidium iodide count); assay type: cell-based, human; conditions: 5 mM, within 48 hours of treatment
Excerpt: Rhamnose was studied on a model of whole reconstructed skin in order to measure its anti-ageing efficacy on the dermal compartment.
Briefly, the model of reconstructed skin used is that described by Bell et al. (Bell E. et al., The reconstitution of living skin, J. Invest. Dermatol., 1983, July; 81): it includes a dermal equivalent on which is reconstructed a multistratified epidermis; the dermal equivalent is manufactured from acid-soluble collagen, culture medium containing serum and normal adult human fibroblasts. After 5 days of shrinkage, this equivalent is inoculated with keratinocytes and then cultured for 6 days in immersion and for 7 days in emersion in order to obtain a multistratified and differentiated epidermis having a horny layer.
The reconstructed skin is treated with 5 mM rhamnose for 2 days and 5 days in the culture medium; after the treatment, the reconstructed skins are included in Tissue Tek in order to produce frozen sections 7 μm thick with a cryostat. […] Three frozen sections are prepared at random on each reconstructed skin; on each section, two microscopic fields (25× objective lens) are analysed by fluorescence microscopy and photographed. The dermal fibroblasts are thus counted for each reconstructed skin on six images in total representing the six microscopic fields considered. […]

[2] = test system: keratinocytes (HaCat line); assay: Proliferation of keratinocytes (Cyquant, Nile red, XTT markers); assay type: cell-based; conditions: keratinocytes cultured in medium depleted in growth factors, vs untreated control
Description: The keratinocytes (HaCat line) are cultured under two conditions: whole defined culture medium (standard condition) and culture medium deficient in growth factors. This deficient medium gives rise to a controlled delay in cell proliferation. Under these conditions, it is then possible to measure the effects of compounds capable of compensating for the deficiency in growth factors of the culture medium and thus of relaunching the cell multiplication and/or of stimulating cell metabolism.
The keratinocyte proliferation is measured by means of three markers on the same cell population: the level of DNA, which is proportional to the number of cells (Cyquant probe), the level of constituent polar lipids of cell membranes (Nile red probe) and the mitochondrial respiration, which reflects the general cell metabolism (XTT probe).

With `C[C@H](O)[C@H](O)[C@@H](O)[C@@H](O)C=O` [rhamnose, Rhamnose] the “green fluorescence (proportional to amount of type I procollagen) vs control skin” value (type I procollagen; 1 mM for 120 hours) was “marked increase”, the “synthesis of type I procollagen by the fibroblasts” value (type I procollagen; 1 mM for 120 hours) was “greatly stimulated” and the “procollagen 1 synthesis” value (type I procollagen; 1 mM) was “stimulation of procollagen 1 synthesis”. The “procollagen 1 synthesis” value (type I procollagen; 5 mM) was “stimulation of procollagen 1 synthesis”, the “growth of the dermal fibroblasts” value [1] was “induces stimulation of growth” and the keratinocyte proliferation [2] was “activate keratinocyte proliferation”.
